Test results taken from patent publication US20240248101A1 (The United States of America, as represented by the …, priority 2021, published 2024).
“And” between values parts separate entries of the source, which are not always exact repeats. Equal values may be shown once.

Tests used:
[1] = Vitamin C renal leak study in men with Fabry disease and healthy male controls (matched fasting plasma and 1 h urine); assay type: in vivo, human; settings: for median fractional excretion of vitamin C (FeVC): all subjects
Text: Study design: This was a non-randomized cross-sectional cohort study aimed at investigating the prevalence and clinical characteristics of vitamin C renal leak in men with Fabry disease and healthy male controls. The protocols were approved by the Institutional Review Boards of NINDS and NIDDK, NIH.
Participants: Men with Fabry disease who were actively participating in NIH protocols evaluating the open label use of enzyme replacement therapy (ERT) in Fabry disease (95-N-0121, 00-N-0185 and 02-N-0220), ClinicalTrials.gov Identifiers: NCT00001491 and NCT00068107) were recruited. The male predominance in Fabry disease is based on the X-linked inheritance pattern. Accordingly, healthy men aged 18-58 were recruited on a rolling basis as controls for the Fabry cohort, under NIH protocol 04-DK-0021 (arm 3). Exclusion criteria included acute or chronic illness, alcohol abuse or tobacco use.
Matched urine and plasma vitamin C measurements: Following an overnight fast, on the morning of study, subjects were instructed to empty their bladder. […] Following the initial spot urine collection, subjects were hospitalized for another 24 hours. They consumed a hospital diet free of supplements or foods items with no or low vitamin C content. On morning of day 2, collection of all voided urine for 24 hours (termed 24 h urine) was obtained and subjects were discharged home.
Primary endpoint was the prevalence of vitamin C renal leak in the Fabry's cohort compared with healthy controls. Renal leak status (leak vs no leak) was determined using criteria described in depletion-repletion studies above. […] To address this limitation, renal leak was also expressed as fractional excretion of vitamin C (FeVC) defined as follows: […]
Following an overnight fast, on the morning of study, subjects were instructed to empty their bladder. […] Subjects could watch TV, read, take naps, or rest in any other way they choose. […]

[2] = Vitamin C renal leak study in diabetic cohort, nondiabetic controls and healthy subgroup (matched fasting plasma and 1 h urine); assay type: in vivo, human; settings: for Plasma Vitamin C Concentration (mean): fasting
Protocol: Vitamin C in plasma and urine was measured using coulometric electrochemical detection with high performance liquid chromatography.
Study design: This was a non-randomized cross-sectional cohort outpatient study aimed at investigating the prevalence and clinical characteristics of vitamin C renal leak in a cohort of individuals with diabetes and non-diabetic controls. The protocol was approved by the Institutional Review Boards of NIDDK, NIH.
Participants and Recruitment: The study included a cohort of diabetic and non-diabetic individuals aged 18-65, without known acute or chronic medical conditions other than complications of diabetes mellitus or metabolic syndrome. Exclusion criteria included presence of an acute or chronic illness, alcohol abuse or tobacco use and pregnancy.
Subjects were also instructed to avoid food or drinks (other than water and medications) after midnight, prior to study sampling day. On morning of study sampling, subjects were admitted to the NIH CRC's metabolic unit as outpatients. They were instructed to empty their bladder. […] Subjects were subsequently provided with a meal and discharged home.
Study Groups and Comparators for Analyses: Three groups of participants who met the inclusion and exclusion criteria were used for data analyses: diabetic cohort, nondiabetic control group and healthy subgroup. The diabetic cohort was comprised of men and women with type 1 or type 2 diabetes. The nondiabetic control group was made up of individuals without diabetes and were not taking any chronic medications. To investigate unknown factors associated with renal leak, related and unrelated to diabetes, the study exclusion criteria was non-restrictive to recruit a broad sampling of the population. Thus, the nondiabetic control group included asymptomatic subjects with abnormal laboratory values which not determined to be clinically significant during the screening evaluation. However, inclusion of individuals with abnormal laboratory values in the non-diabetic control group could confound study findings. To address this concern, a post-hoc healthy subgroup of the nondiabetic control group without abnormal laboratory findings was identified. Primary comparative analysis was between the diabetic group vs nondiabetic control group. The diabetic group was secondarily compared with the healthy subgroup to assess for discordant findings.
This binary criterion is a qualitative measure indicating the presence or absence of a renal leak in a subject. The prevalence of renal leak was calculated as the proportion of leakers in each population cohort.
FeVC is a quantitative measure that describes the degree and magnitude of a renal leak. The formula for calculating FeVC is shown below: […]
Sample collection and vitamin C assay: Urine and plasma vitamin C were analyzed by HPLC with coulometric electrochemical detection. Other blood and urine chemistry measurements were performed, using standard laboratory methods, by the department of laboratory medicine Clinical Laboratory Improvement Amendments (CLIA) identification number: 21D0665373, Clinical Research Center, National Institutes of Health.

[3] = Plasma and urine vitamin C in gulo-/- mice given vitamin C in drinking water; assay type: in vivo, mouse; settings: gulo-/- mice of both sexes, vitamin C 0 to 5000 mg/L in drinking water
Protocol: Values represent means+/−SDs. All mice were maintained at each dose for one week before blood and urine sampling.
Animal experiments were approved by the Animal Care and Use Committee NIDDK, NIH, and were conducted in accordance with NIH guidelines. Mice were 10-14-week-old males and females with free access to food and water and were maintained on a regular chow diet (NIH-07) without detectable ascorbate (detection limit 10 nM). Mice type were gulo^−/− and SVCT1^−/−. […] To maintain the mice, vitamin C was provided via drinking water, which was changed daily.
Plasma and RBCs were from mouse whole blood as described. Urine was collected at the same time as the blood by gentle abdominal pressure.
Blood and urine samples were collected on ice and processed promptly. All samples were stored at −80 C and assayed together by HPLC as previously described.

[4] = Vitamin C depletion-repletion pharmacokinetic study: renal threshold and minimal elimination threshold (PBPK and PCF modelling); assay type: in vivo, human; settings: for vitamin C renal threshold, Population Curve Fitting (PCF): population estimate
Protocol: Renal threshold was estimated using physiology-based pharmacokinetics modeling. […] Mice knockout models were used for proof-of-concept studies. Vitamin C was measured using coulometric electrochemical detection with high performance liquid chromatography.
Pharmacokinetics components of depletion-repletion study design have been described previously (see supplementary methods). The protocol was approved by the Institutional Review Board, National Institutes of Diabetes and Digestive and Kidney diseases (NIDDK), National Institutes of Health (NIH).
Participants, Interventions: Healthy men and women aged 18 to 35 years without any acute or chronic medical conditions. Details on eligibility and study interventions are described in supplementary methods.
Full details regarding studying outcomes and analyses are provided in supplementary methods. […] Each subject had 5-7 oral and intravenous pharmacokinetic studies over a 13-fold or greater dose range. Data from the NIH depletion study in men and women were used to estimate the vitamin C renal threshold by two different methods: physiology-based pharmacokinetics modeling (PBPK), and population curve fitting with empirical functions (PCF). […] Based on data from healthy men, this model facilitated description of pharmacokinetics-time profiles of vitamin C in plasma, urine, and tissues simultaneously. Goodness of fit analyses support the use of this model to data from healthy women. For population curve fitting (PCF), plasma and urine values were analyzed using nonlinear mixed-effect modeling. PCF fits empirical functions to data from all subjects of each sex to estimate the renal threshold for that population of men and women. Using PBPK analyses, minimal elimination threshold (MET) was defined as that plasma concentration 2 standard deviations below the mean renal threshold for men and for women based on guidelines for estimating dietary reference intakes. […] (see supplementary methods).
Because urine samples collected at variable intervals were not synchronized with plasma samples, the time at which vitamin C first appears in the urine or when vitamin C urinary elimination became zero could not be determined from raw data alone. […] Using the data from the NIH depletion repletion study, vitamin C renal threshold was estimated by two different methods: Physiology-Based Pharmacokinetics model (PBPK) and population curve fitting (PCF).
Goodness of fit analysis support the use of the pharmacokinetics model to data collected from 15 normal women. […] When the amount of filtered vitamin C exceeds renal tubular reabsorptive capacity, vitamin C appears in the urine. The point at which renal threshold is reached (when filtration and reabsorption are in equilibrium) can be represented as
The Cplasma that fulfill the above equation is the plasma concentration threshold (renal threshold). At which time, the rate of vitamin C dispense into the tubule equals zero. The equation 2 can be rearranged as
Different non-parametric empirical functions were explored to best describe the combined urine data versus plasma vitamin C value of all subjects. After the structure function (model) was selected using goodness-of-fit assessments, plasma and urine data analyses were finalized using Nonlinear Mixed-Effect (MLME) modeling for population fit with S-Plus for Windows (version 8, Insightful Corp. Seattle, WA) to estimate the parameters account for inter-subject variabilities.
A Michealis-Menten equation (equation 4) was selected and fitted to data to estimate the parameters Vm and KM (maximum rate and Michaelis constant, respectively).
Initial estimate of Vm and KM were obtained by inspecting data plots. Goodness-of-fit was checked by visually inspecting the distribution of Standardized Residuals. If the goodness of fit was not acceptable, the initial parameters (Vm and KM) were changed and the resulting plot inspected again for distribution of residuals. […]

O=C1O[C@H]([C@@H](O)CO)C(O)=C1O [vitamin C]
mean plasma vitamin C concentration ([1]; Fabry cohort and healthy controls after 3-week low vitamin C diet, order of cohorts not stated): 38.9 µM and 36.5 µM
median fractional excretion of vitamin C (FeVC) ([1]; healthy male controls): 0
median fractional excretion of vitamin C (FeVC) ([1]; men with Fabry disease): 0.018
Median FeVC ([2]; Diabetic Cohort, All Subjects): 0.00032
Median FeVC ([2]; Diabetic Cohort, Plasma Vit C < MET): 0.00015
Median FeVC ([2]; Diabetic Cohort, Plasma Vit C ≥ MET): 0.0012 and 0.00122
Plasma Vitamin C Concentration (mean) ([2]; Diabetic Cohort, table part adjusted for sex/gender): 40.9 µM
Plasma Vitamin C Concentration (mean) ([2]; Diabetic Cohort, un-adjusted for sex/gender): 40.9 µM
Median FeVC ([2]; Healthy Subgroup, All Subjects): 0.00046
Median FeVC ([2]; Healthy Subgroup, Plasma Vit C < MET): 0
Median FeVC ([2]; Healthy Subgroup, Plasma Vit C ≥ MET): 0.00046
Plasma Vitamin C Concentration (mean) ([2]; Healthy Subgroup, table part adjusted for sex/gender): 57.1 µM
Plasma Vitamin C Concentration (mean) ([2]; Healthy Subgroup, un-adjusted for sex/gender): 57.1 µM
Median FeVC ([2]; Non-Diabetic Control, All Subjects): 0.00044
Median FeVC ([2]; Non-Diabetic Control, Plasma Vit C < MET): 0.0000
Median FeVC ([2]; Non-Diabetic Control, Plasma Vit C ≥ MET): 0.0010
Plasma Vitamin C Concentration (mean) ([2]; Non-Diabetic Control, table part adjusted for sex/gender): 53.1 µM
Plasma Vitamin C Concentration (mean) ([2]; Non-Diabetic Control, un-adjusted for sex/gender): 53.1 µM
plasma vitamin C concentration below which no vitamin C was found in urine (renal threshold) [3]: 55 µM
Minimal Elimination Threshold (MET), 2SD below mean renal threshold using PBPK ([4]; healthy men): 38.1 µM
vitamin C renal threshold, Pharmacokinetic Modeling (PBPK), individual estimates ([4]; healthy men, individual subjects M1-M7, plasma concentration at which vitamin C first appears in urine): 52 μM and 51 μM and 40 μM and 56 μM and 45 μM (2×) and 50 μM
vitamin C renal threshold, PBPK, Mean (SD) ([4]; healthy men, n = 7): 48.5(5.2) μM
vitamin C renal threshold, PBPK, Mean (SD) ([4]; healthy men, n = 7, listed as Vitamin C): 48.5 μM and 48.5 (5.2) μM
vitamin C renal threshold, Population Curve Fitting (PCF) ([4]; healthy men): 48.3 µM and 48.28 µM
vitamin C renal threshold, Population Curve Fitting (PCF) ([4]; healthy men, listed as Vitamin C): 48.3 µM
Minimal Elimination Threshold (MET), 2SD below mean renal threshold using PBPK ([4]; healthy women): 43.2 µM
vitamin C renal threshold, Pharmacokinetic Modeling (PBPK), individual estimates ([4]; healthy women, individual subjects W1-W10): 54 μM (3×) and 67 μM and 57 μM and 64 μM and 63 μM and 45 μM and 70 μM and 55 μM
vitamin C renal threshold, PBPK, Mean (SD) ([4]; healthy women, n = 10): 58.3(7.5) μM
vitamin C renal threshold, PBPK, Mean (SD) ([4]; healthy women, n = 10, listed as Vitamin C): 58.3 μM and 58.3 (7.5) μM
vitamin C renal threshold, Population Curve Fitting (PCF) ([4]; healthy women): 60.4 µM and 60.39 µM
vitamin C renal threshold, Population Curve Fitting (PCF) ([4]; healthy women, listed as Vitamin C): 60.4 µM
